Test results reported in publication PMC8874540, “Pyrazole and Triazole Derivatives as Mycobacterium tuberculosis UDP-Galactopyranose Inhibitors” (Pharmaceuticals, 2022).
Counter-ions that a name gives are not always drawn.

What was measured:
[1] = target: T1, UDP-galactopyranose mutase (MtbUGM) (Mycobacterium tuberculosis, UniProt P9WIQ1); assay: HPLC assay, % inhibition at […], […] UDP-Galf; type: biochemical
T1 construct: gene glf; His6-tagged MtbUGM from pET-29b(+)

[2] = target: T1, UDP-galactopyranose mutase (MtbUGM); assay: HPLC kinetic assay of UDP-Galf to UDP-Galp, global fit; type: biochemical

T1 sequence (P9WIQ1 whole entry): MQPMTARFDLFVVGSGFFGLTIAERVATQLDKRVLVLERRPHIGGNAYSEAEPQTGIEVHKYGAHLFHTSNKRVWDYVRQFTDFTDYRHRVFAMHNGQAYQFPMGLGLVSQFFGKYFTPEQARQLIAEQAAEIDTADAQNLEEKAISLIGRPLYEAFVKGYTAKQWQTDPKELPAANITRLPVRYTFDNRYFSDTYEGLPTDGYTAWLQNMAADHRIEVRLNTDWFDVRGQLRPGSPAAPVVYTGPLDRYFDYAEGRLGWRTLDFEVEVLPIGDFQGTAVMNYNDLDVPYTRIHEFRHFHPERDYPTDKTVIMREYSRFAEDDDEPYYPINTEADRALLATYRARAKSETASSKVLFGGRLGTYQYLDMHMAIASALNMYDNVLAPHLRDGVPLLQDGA

Structure (SMILES) | HPLC assay, % inhibition at 60 μM, 15 μM UDP-Galf [1] | Ki [2]
Cc1nn(-c2ccccc2)c(O)c1C(=O)c1ccc(Cl)cc1 [DA1, 4-p-chlorobenzoyl-1-phenyl-3-methyl-5-pyrazol] | DA1 and DA2 showed comparable inhibition to that of MS208 | 
Cc1nn(-c2ccc(Cl)cc2)c(O)c1C(=O)c1ccccc1 [DA2, 4-benzoyl-1-p-chlorophenyl-3-methyl-5-pyrazol] | DA1 and DA2 showed comparable inhibition to that of MS208 | 
Cc1nn(-c2ccc(Cl)cc2)c(O)c1S(=O)(=O)c1ccc(Cl)cc1 [DA5, 4-p-chlorobenzosulfonyl-1-p-chlorophenyl-3-methyl-5-pyrazol hydrochloride] | The sulfonyl derivative, DA5, showed comparable % inhibition to that of the carbonyl derivative MS208. | 
COC(=O)c1ccc(C(=O)Oc2cc(C)nn2-c2ccc(Cl)cc2)cc1 [DA8] | two of these O-acyl analogues, DA8 and DA10 still showed comparable % inhibition to MS208 | 
Cc1cc(OC(=O)c2ccc(S(N)(=O)=O)cc2)n(-c2ccc(Cl)cc2)n1 [DA10, 4-Sulfamoyl-[3-methyl-1-p-chlorophenyl-1H-pyrazol-5-yl] benzoic acid ester] |  | 51 ± 4 µM
O=C(CCc1cn(-c2ccc(Cl)cc2)nn1)Oc1ccc(Cl)cc1 [DA11] | The triazolo analogues, DA11-DA13, showed comparable % inhibition to that of MS208. | 
OC(c1ccc(Cl)cc1)c1cn(-c2ccc(Cl)cc2)nn1 (stereo not drawn) [DA12, [1-(4-chlorophenyl)-1H-1,2,3-triazol-4-yl]-4-chlorophenylmethanol] | The triazolo analogues, DA11-DA13, showed comparable % inhibition to that of MS208. | 
O=C(c1ccc(Cl)cc1)c1cn(-c2ccc(Cl)cc2)nn1 [DA13, 4-p-chlorobenzoyl-1-p-chlorophenyl-1H-1,2,3-triazole] | The triazolo analogues, DA11-DA13, showed comparable % inhibition to that of MS208. | 
Cc1nn(-c2ccc(Cl)cc2)c(O)c1C(=O)c1ccc(Cl)cc1 [MS208, 4-p-chlorobenzoyl-1-p-chlorophenyl-3-methyl-5-pyrazol] | DA1 and DA2 showed comparable inhibition to that of MS208 | 
